# Measurements taken from patent publication US10085988B1, “Aglaroxin C and derivatives as HCV entry inhibitors” (SRI International, priority 2015, dated 2018).
# Experiments:
# [1] = system: JFH-1 genotype 2a infectious virus (HCVcc); assay: HCV (HCVcc) infection / viral entry inhibition on Huh7.5.1 cells; format: cell-based, Hepatitis C virus; conditions: for inhibition on HCV entry (enantiomer comparison): HCVcc infection; for EC50: Hepatitis C virus
# Experimental: (§1) (A) PHHs seeded in a 48-well plate were treated with Roc-A or DMSO and then infected by HCVpp. EC50and CC50 (50% cytotoxicity dose) were calculated based on the fitted Sigmoid curves. (B) Huh7.5.1 cells were treated with Roc-A (20 nM) or DMSO for 1, 2, and 3 days. Cellular PHB1, PHB2, CRaf, and Ras were detected by Western blotting. Numbers shown below Western blot gel images indicate the relative protein levels quantified by Odyssey imaging system (LI-COR Biosciences). (C-D) Flag-CRaf (F-CRaf) and V5-tagged PHB1 & 2 were co-transfected into 293T cells and then left untreated or treated with Roc-A (20 nM) before immunoprecipitation with anti-Flag antibody. The pulled-down PHB1 & 2 as well as CRaf were detected by immunoblotting. (E) Different inhibitory profiles of the (+)- and(−)-Roc-A enantiomers on HCVcc infection. (F) A CMV-luciferase reporter construct was transfected into Huh7.5.1 cells. 24 h post-transfection each compound was added to the cells for 3 h at 2 μM. After removal of the compound, the cells were further incubated for 24 h followed by luciferase assay. […] HCVcc-Luc was added to Huh7.5.1 cells at 37° C. and incubated for 3 h. At the indicated time points, 2μM of each compound or DMSO was added into the media and incubated for 3 h prior to removal. Infected cells were incubated at 37° C. for an additional 48 h prior to luciferase assay (mean of n=3; error bars, s.d.).
# (§2) In a preferred embodiment, Y is C, R1, R3, and R4 from the structure 5 is —OCH3, and R2 and R5 is hydrogen, which is aglaroxin C. […] The term EC50 refers to the concentration of a drug or antibody which induces a response halfway between the baseline and maximum after a specified exposure time. It is commonly used as a measure of drug's potency. The 50% cytotoxic concentration (CC50) is defined as the quantity of a toxicant generating 50% of cell viability, compared to the control. The values of the percentages of cell viability were plotted against toxicant concentrations, and CC50 is determined. (TI) is a comparison of the amount of a therapeutic agent that causes the therapeutic effect to the amount that causes toxicity.
# [2] = Cytotoxicity (CC50) on Huh7.5.1 cells; format: cell-based; conditions: human; for CC50 at 3 h: compounds incubated with cells for a total of 3 h on Huh7.5.1 cells; for CC50 at 48 h: compounds incubated with cells for a total of 48 h on Huh7.5.1 cells
# Source text: as §2
# [3] = system: protein translation (luciferase reporter gene); assay: Translation inhibition, CMV-luciferase reporter transfected into Huh7.5.1 cells; format: cell-based, human; conditions: compound added for 3 h, luciferase reporter in Huh7.5.1 cells
# Experimental: as §1
# HCVpp = HCVpp infection/entry, primary human hepatocytes (PHHs), with cell viability; format: cell-based, Hepatitis C virus
# [4] = system: HCV RNA replication or protein translation; assay: HCV RNA replication or protein translation; format: cell-based, Hepatitis C virus; conditions: 20 nM
# CHIKVpp = CHIKVpp infection of Huh7.5.1 cells; format: cell-based, chikungunya virus; conditions: low nanomolar concentrations
# Experimental: FIGS. 4A and 4B illustrate that PHBs are required for CHIKVpp entry. (A) Huh7.5.1 were transfected with indicated siRNA, followed by infection of CHIKVpp (mean±SD, *p<0.05). (B) Huh 7.5.1 cells were treated with DMSO or Roc-A (10 nM) and then infected by CHIKVpp for luciferase assay (mean±SD, *p<0.05).
# DENV2 = DENV2 infection of Huh7.5.1 cells; format: cell-based, dengue virus
# Experimental: Huh7.5.1 cells were treated by DMSO, Roc-A (5nM) or Roc-A (10nM) for 10 hours prior to infection by DENV2 (MOI 0.1 and 1). 36 hours post-infection, cells were fixed in methanol and immunostained for DENV prM/E (red).
# PHB1 and PHB2 = PHB1 and PHB2 (Homo sapiens (Human), UniProt P35232+Q99623); assay: Cell surface biotinylation assay; format: cell-based; conditions: 20 nM, Huh7.5.1 cells
# [5] = biological target: PHB1, PHB2, CRaf, and Ras (Homo sapiens (Human), UniProt P35232+Q99623); assay: Western blot of total cellular protein levels in Huh7.5.1 cells; format: cell-based; conditions: 20 nM, 1, 2, and 3 days
# Experimental: as §1
# PHB-CRaf interaction = PHB-CRaf interaction (Homo sapiens (Human), UniProt P35232+Q99623); assay: Co-IP of Flag-CRaf and V5-tagged PHB1 & 2 in 293T cells; format: cell-based; conditions: 20 nM
# Experimental: as §1
# [6] = human liver microsomal stability assay
# HCVcc-Luc = assay: Time-of-addition experiment, HCVcc-Luc on Huh7.5.1 cells; format: cell-based, Hepatitis C virus; conditions: 2 μM
# Experimental: as §1
# [7] = 3 h incubation on Huh7.5.1 cells
# [8] = 48 h incubation on Huh7.5.1 cells
# Sequence of PHB-CRaf interaction (P35232 whole entry): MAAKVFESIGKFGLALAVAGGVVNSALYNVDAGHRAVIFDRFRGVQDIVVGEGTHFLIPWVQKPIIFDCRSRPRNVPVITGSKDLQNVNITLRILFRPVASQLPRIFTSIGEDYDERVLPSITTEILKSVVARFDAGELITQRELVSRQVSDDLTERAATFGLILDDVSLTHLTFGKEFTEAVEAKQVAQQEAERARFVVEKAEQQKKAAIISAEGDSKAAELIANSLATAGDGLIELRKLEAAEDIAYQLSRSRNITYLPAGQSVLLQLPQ
# Sequence of PHB-CRaf interaction (Q99623 whole entry): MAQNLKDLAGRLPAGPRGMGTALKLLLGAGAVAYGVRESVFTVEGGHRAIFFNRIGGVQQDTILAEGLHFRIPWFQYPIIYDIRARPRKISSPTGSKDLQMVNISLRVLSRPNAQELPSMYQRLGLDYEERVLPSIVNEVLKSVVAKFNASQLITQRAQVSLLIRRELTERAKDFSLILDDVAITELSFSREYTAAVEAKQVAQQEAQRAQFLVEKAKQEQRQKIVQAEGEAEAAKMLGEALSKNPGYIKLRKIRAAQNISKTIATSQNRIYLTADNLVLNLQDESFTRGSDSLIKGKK
structure (smiles),measurement,setting,value
COc1ccc([C@@]23Oc4cc(OC)cc(OC)c4[C@]2(O)c2nc4n(c(=O)c2[C@H]3c2ccccc2)CCC4)cc1 [(−)-aglaroxin C],TI (CC50/EC50),[1]; [7],60^1
same,inhibition on HCV entry (enantiomer comparison),[1],active enantiomer
same,EC50,"[1]; Huh-7.5.1, 3 h",200 nM
same,CC50 at 3 h,[2],12000 nM
same,Translation inhibition at 2 μM,[3],No
"COc1ccc([C@@]23Oc4cc(OC)cc(OC)c4[C@]2(O)[C@H](O)[C@H](C(=O)N(C)C)[C@H]3c2ccccc2)cc1 [Roc-A, rocaglamide A]",HCVcc infection,[1]; low nanomolar concentrations,significantly reduced
same,HCVpp infection,HCVpp; low nanomolar concentrations,significantly reduced
same,HCVpp entry,HCVpp; pretreatment of PHHs at non-cytotoxic concentrations,suppressed
same,inhibition of HCV RNA replication or protein translation,[4],did not inhibit
same,CHIKVpp infection,CHIKVpp,significantly reduced
same,DENV2 infection,"DENV2; 5 nM or 10 nM for 10 hours prior to infection, MOI 0.1 and 1, Huh7.5.1 cells",reduced
same,dengue virus infection,DENV2; low nanomolar concentrations,significantly reduced
same,cell surface expression of PHB1 and 2,PHB1 and PHB2,decreased
same,"PHB1, 2, Ras, and CRaf at the total protein level",[5],decreased
same,PHB-CRaf interaction in co-IP experiment,PHB-CRaf interaction,disrupted
same,half-life,[6],37 min
COc1ccc([C@]23Oc4cc(OC)cc(OC)c4[C@@]2(O)[C@@H](O)[C@@H](C(=O)N(C)C)[C@@H]3c2ccccc2)cc1 [(+) Roc-A],EC50,"[1]; Huh-7.5.1, 3 h",> 200000 nM
same,CC50 at 3 h,[2],300000 nM
same,Translation inhibition at 2 μM,[3],No
COc1ccc([C@]23Oc4cc(OC)cc(OC)c4[C@@]2(O)c2nc4n(c(=O)c2[C@@H]3c2ccccc2)CCC4)cc1 [(+)-aglaroxin C],TI (CC50/EC50),[1]; [7],5^1
same,EC50,"[1]; Huh-7.5.1, 3 h",20000 nM
same,CC50 at 3 h,[2],100000 nM
same,Translation inhibition at 2 μM,[3],No
"COc1ccc([C@@]23Oc4cc(OC)cc(OC)c4[C@]2(O)c2nc4n(c(=O)c2[C@H]3c2ccccc2)CCC4)cc1 (racemic) [(±) aglaroxin C (C10), aglaroxin C]",TI (CC50/EC50),[1]; [7],100
same,TI (CC50/EC50),[1]; [8],500
same,EC50,"[1]; Huh-7.5.1, 3 h",100 nM
same,EC50,"[1]; Huh-7.5.1, 48 h",0.04 nM
same,half-maximum effective concentrations (EC50),[1]; JFH-1 genotype 2a infectious virus in cell culture,picomolar
same,CC50 at 3 h,[2],10000 nM
same,CC50 at 48 h,[2],20 nM
same,Translation inhibition at 2 μM,[3],No
same,Translation inhibition at 2 μM,"[3]; listed as chiral, racemic aglaroxin C",did not inhibit
same,anti-HCV activity,HCVcc-Luc; added about 3 h after the infection was initiated,lost its activity
same,anti-HCV activity,HCVcc-Luc; added together with the virus,inhibited HCV infection when added together with the virus
same,anti-HCV activity,"HCVcc-Luc; added together with the virus, listed as chiral, racemic aglaroxin C",maximal anti-HCV activity
COc1ccc([C@@]23Oc4cc(OC)cc(OC)c4[C@]2(O)[C@H](O)[C@H](C(=O)N(C)C)[C@H]3c2ccccc2)cc1 [(−) Roc-A],TI (CC50/EC50),[1]; [7],50
same,TI (CC50/EC50),[1]; [8],75
same,inhibition on HCV entry (enantiomer comparison),[1],stronger inhibition on HCV entry than the (+) enantiomer
same,EC50,"[1]; Huh-7.5.1, 3 h",1000 nM
same,EC50,"[1]; Huh-7.5.1, 48 h",4 nM
same,CC50 at 3 h,[2],50000 nM
same,CC50 at 48 h,[2],300 nM
same,Translation inhibition at 2 μM,[3],No
